# Measured values from patent publication US20060217418A1, “Substituted alkyl amido piperidines” (priority 2001, published 2006).
# Target: T1, rat MCH1 receptor (Rattus norvegicus, UniProt P97639)
# T1 construct: operatively linked to DNA encoding the rat MCH1 receptor so as to permit expression thereof; expressed in transfected cells; host or cells: Human embryonic kidney Peak rapid 293 (Peakr293) cells, transient calcium phosphate transfection, membranes
# Experiment: Radioligand binding assay at cloned rat MCH1 receptor ([3H]Compound A)
# Conditions: cloned rat MCH1, Peakr293 cell membranes, 0.08 nM [3H]Compound A, 25° C., 90 minutes; read-out: Ki(MCH-1)
# T1 sequence (P97639 whole entry): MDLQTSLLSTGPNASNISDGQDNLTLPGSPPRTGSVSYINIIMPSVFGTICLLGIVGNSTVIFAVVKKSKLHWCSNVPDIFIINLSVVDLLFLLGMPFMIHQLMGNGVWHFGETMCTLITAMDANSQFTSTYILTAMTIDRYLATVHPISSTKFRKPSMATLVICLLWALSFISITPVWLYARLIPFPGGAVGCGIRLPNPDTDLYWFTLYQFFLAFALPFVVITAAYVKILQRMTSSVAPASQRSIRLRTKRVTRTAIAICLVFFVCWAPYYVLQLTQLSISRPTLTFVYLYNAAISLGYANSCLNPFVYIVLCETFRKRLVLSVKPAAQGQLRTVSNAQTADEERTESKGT
row,Compound,Ki [nM]
1,CCCC(=O)Nc1cccc(C2CCN(CCCNC(=O)C(c3ccccc3)c3ccccc3)CC2)c1 [Example 5],3.1
2,"CC(C)C(=O)Nc1cccc(C2CCN(CCCNC(=O)C(Br)c3ccccc3)CC2)c1 (stereo not shown) [Example 9, N-{3-[1-(3-{[BROMO(PHENYL)ACETYL]AMINO}PROPYL)-4-PIPERIDINYL] PHENYL}-2-METHYLPROPANAMIDE]",71.6
3,CC(C)CC(=O)Nc1cccc(C2CCN(CCCNC(=O)C(c3ccccc3)c3ccccc3)CC2)c1 [Example 13],11.8
4,"CCC(=O)Nc1cccc(C2CCN(CCCNC(=O)C(CC)(c3ccccc3)c3ccccc3)CC2)c1 [Example 15, 2,2-DIPHENYL-N-(3-{4-[3-(PROPIONYLAMINO)PHENYL]-1-PIPERIDINYL}PROPYL) BUTANAMIDE]",8.9
5,"CCSC(C(=O)NCCCN1CCC(c2cccc(NC(=O)C(C)C)c2)CC1)(c1ccccc1)c1ccccc1 [Example 16, N-{3-[1-(3{[(ETHYLSULFANYL)(DIPHENYL)ACETYL]AMINO}PROPYL)-4-PIPERIDINYL] PHENYL}-2-METHYLPROPANAMIDE]",1040
6,O=C(Nc1cccc(C2CCN(CCCNC(=O)C(c3ccccc3)c3ccccc3)CC2)c1)C1CC1 [Example 17],1.8
7,CC(C)(C)C(=O)Nc1cccc(C2CCN(CCCNC(=O)C(c3ccccc3)c3ccccc3)CC2)c1 [Example 18],31.5
8,COc1ccc(NC(=O)C(C)C)cc1C1CCN(CCCNC(=O)C(c2ccccc2)c2ccccc2)CC1 [Example 20],90.5
9,CCCC(=O)Nc1ccc(OC)c(C2CCN(CCCNC(=O)C(c3ccccc3)c3ccccc3)CC2)c1 [Example 22],136
10,"CCCC(=O)Nc1cccc(C2CCN(CCCNC(=O)C(c3ccc(F)cc3)c3ccc(F)cc3)CC2)c1 [Example 27, N-{3-[1-(3-{[2,2-BIS(4-FLUOROPHENYL)ACETYL]AMINO}PROPYL)-4-PIPERIDINYL] PHENYL}BUTANAMIDE]",1.1
11,CC(C)C(=O)Nc1cccc(C2CCN(CCCNC(=O)C(C)(c3ccccc3)c3ccccc3)CC2)c1 [Example 30],5.3
12,Cc1c(NC(=O)C(C)C)cccc1C1CCN(CCCNC(=O)C(c2ccccc2)c2ccccc2)CC1 [Example 33],496
13,"CC(C)C(=O)Nc1cccc(C2CCN(CCCNC(=O)C3(c4ccc(F)cc4)CCCCC3)CC2)c1 [Example 40, 1-(4-FLUOROPHENYL)-N-(3-{4-[3-(ISOBUTYRYLAMINO)PHENYL]-1-PIPERIDINYL} PROPYL)CYCLOHEXANECARBOXAMIDE]",7.9
14,"CC(C)C(=O)Nc1cccc(C2CCN(CCCNC(=O)C3(c4ccc(Cl)cc4Cl)CC3)CC2)c1 [Example 41, 1-(2,4-DICHLOROPHENYL-N-(3-{4-[3-(ISOBUTYRYLAMINO)PHENYL]-1-PIPERIDINYL} PROPYL)CYCLOPROPANECARBOXAMIDE]",39.9
15,"CC(C)C(=O)Nc1cccc(C2CCN(CCCNC(=O)C(C)c3ccc(F)cc3)CC2)c1 (stereo not shown) [Example 42, 2-(4-FLUOROPHENYL)-N-(3-{4-[3-(ISOBUTYRYLAMINO)PHENYL]-1-PIPERIDINYL} PROPYL)PROPANAMIDE]",34.3
16,"CC(C)C(=O)Nc1cccc(C2CCN(CCCNC(=O)C3(c4ccc(Cl)cc4)CC3)CC2)c1 [Example 44, 1-(4-CHLOROPHENYL)-N-(3-{4-[3-(ISOBUTYRYLAMINO)PHENYL]-1-PIPERIDINYL} PROPYL)CYCLOPROPANECARBOXAMIDE]",19.7
17,CC(C)C(=O)Nc1cc(C2CCN(CCCNC(=O)C3(c4ccc(Cl)cc4)CC3)CC2)ccc1F [Example 47],25.6
18,CC(C)C(=O)Nc1cc(C2CCN(CCCNC(=O)C(C)(C)c3ccc(Cl)cc3)CC2)ccc1F [Example 49],14.8
19,CC(C)C(=O)Nc1cccc(C2CCN(CCCNC(=O)C(c3ccc(Cl)cc3)c3ccc(Cl)cc3)CC2)n1 [Example 50],1.9
20,CC(C)C(=O)Nc1cc(C2CCN(CCCNC(=O)C(C)(c3ccccc3)c3ccccc3)CC2)ccc1F [Example 51],11.8
21,Cc1ccc(NC(=O)C(C)C)cc1C1CCN(CCCNC(=O)C(c2ccc(Cl)cc2)c2ccc(Cl)cc2)CC1 [Example 52],4.1
22,CC(C)C(=O)Nc1cc(C2CCN(CCCNC(=O)C(c3ccccc3)c3ccccc3)CC2)ccc1F [Example 56],4.5

# The remaining compounds from weak to strong by Ki, led by results:
row,Ki [nM],Compound
1,83,"CCC(=O)Nc1cccc(C2CCN(CCCNC(=O)C(Br)c3ccccc3)CC2)c1 (stereo not shown) [Example 10, N-[3-(1-{3-[(2-BROMO-2-PHENYLACETYL)AMINO]PROPYL}-4-PIPERIDINYL) PHENYL]PROPANAMIDE]"
2,45.9,"CCC(=O)Nc1cccc(C2CCN(CCCNC(=O)C3(c4ccc(Cl)cc4)CCC3)CC2)c1 [Example 58, 1-(4-CHLOROPHENYL)-N-(3-{4-[3-PROPIONYLAMINO)PHENYL]-1-PIPERIDINYL} PROPYL)CYCLOBUTANECARBOXAMIDE]"
3,44.5,CC(C)C(=O)Nc1cc(C2CCN(CCCNC(=O)C(C)c3ccc(F)cc3)CC2)ccc1F (stereo not shown) [Example 46]
4,32.2,COC(C(=O)NCCCN1CCC(c2cccc(NC(=O)C(C)C)c2)CC1)c1ccc(Cl)c(Cl)c1 (stereo not shown) [Example 39]
5,28.4,CC(C)C(=O)Nc1cccc(C2CCN(CCCNC(=O)C3(c4ccc(F)cc4Cl)CCCC3)CC2)c1 [Example 38]
6,23.4,CC(C)(C)CC(=O)Nc1cccc(C2CCN(CCCNC(=O)C(c3ccccc3)c3ccccc3)CC2)c1 [Example 19]
7,19.5,"CC(C)C(=O)Nc1cccc(C2CCN(CCCNC(=O)C(C)c3ccc(Cl)cc3)CC2)c1 (stereo not shown) [Example 37, 2-(4-CHLOROPHENYL)-N-(3-{4-[3-(ISOBUTYRYLAMINO)PHENYL]-1-PIPERIDINYL} PROPYL)PROPANAMIDE]"
8,18.7,CCCC(=O)Nc1ccc(OC)c(C2CCN(CCCNC(=O)C(c3ccc(F)cc3)c3ccc(F)cc3)CC2)c1 [Example 26]
9,13.9,CCC(C(=O)NCCCN1CCC(c2cccc(NC(=O)C(C)C)c2)CC1)(c1ccccc1)c1ccccc1 [Example 12]
10,13.7,"CC(C)C(=O)Nc1cccc(C2CCN(CCCNC(=O)C3(c4ccc(Cl)cc4)CCC3)CC2)c1 [Example 43, 1-(4-CHLOROPHENYL)-N-(3-{4-[3-(ISOBUTYRYLAMINO)PHENYL]-1-PIPERIDINYL} PROPYL)CYCLOBUTANECARBOXAMIDE]"
11,13.1,COc1ccc(NC(=O)C(C)C)cc1C1CCN(CCCNC(=O)C(c2ccc(F)cc2)c2ccc(F)cc2)CC1 [Example 23]
12,11,"CC(C)C(=O)Nc1cccc(C2CCN(CCCNC(=O)C3(c4ccc(F)cc4)CCCC3)CC2)c1 [Example 36, 1-(4-FLUOROPHENYL)-N-(3-{4-[3-(ISOBUTYRYLAMINO)PHENYL]-1-PIPERIDINYL} PROPYL)CYCLOPENTANECARBOXAMIDE]"
13,8.4,CCCCCC(C(=O)NCCCN1CCC(c2cccc(NC(=O)C(C)C)c2)CC1)(c1ccccc1)c1ccccc1 [Example 11]
14,8.2,"CC(C)C(=O)Nc1cccc(C2CCN(CCCNC(=O)C3(c4ccc(Cl)cc4)CCCC3)CC2)c1 [Example 31, 1-(4-CHLOROPHENYL)-N-(3-{4-[3-(ISOBUTYRYLAMINO)PHENYL]-1-PIPERIDINYL} PROPYL)CYCLOPENTANECARBOXAMIDE]"
15,7.9,CCC(=O)Nc1cccc(C2CCN(CCCNC(=O)C(C)(C)c3ccc(Cl)cc3)CC2)c1 [Example 7]
16,4,"CC(C)C(=O)Nc1cccc(C2CCN(CCCNC(=O)C3(c4ccc(Cl)cc4)CCCCC3)CC2)c1 [Example 45, 1-(4-CHLOROPHENYL)-N-(3-{4-[3-(ISOBUTYRYLAMINO)PHENYL]-1-PIPERIDINYL} PROPYL)CYCLOHEXANECARBOXAMIDE]"
17,2.8,"CC(C)C(=O)Nc1cc(C2CCN(CCCNC(=O)C(c3ccc(F)cc3)c3ccc(F)cc3)CC2)ccc1F [Example 48, N-{5-[1-(3-{[BIS(4-FLUOROPHENYL)ACETYL]AMINO}PROPYL)-4-PIPERIDINYL]-2-FLUORO PHENYL}2-METHYLPROPANAMIDE]"
18,2.7,"CCC(=O)Nc1cccc(C2CCN(CCCNC(=O)C(c3ccccc3)c3c(C)cc(C)cc3C)CC2)c1 (stereo not shown) [Example 14, N-[3-(1-{3-[(2-MESITYL-2-PHENYLACETYL)AMINO]PROPYL}-4-PIPERIDINYL)PHENYL] PROPANAMIDE]"
19,2.4,"CC(C)C(=O)Nc1cccc(C2CCN(CCCNC(=O)C(c3ccc(Cl)cc3)c3ccc(Cl)cc3)CC2)c1 [Example 2, N-{3-[1-(3-{[BIS(4-CHLOROPHENYL)ACETYL]AMINO}PROPYL)-4-PIPERIDINYL] PHENYL}-2-METHYLPROPANAMIDE]"
20,2.3,"Cc1ccc(C(C(=O)NCCCN2CCC(c3cccc(NC(=O)C(C)C)c3)CC2)c2ccc(C)cc2)cc1 [Example 34, N-{3-[1-(3-{[BIS(4-METHYLPHENYL)ACETYL]AMINO}PROPYL)-4-PIPERIDINYL] PHENYL}-2-METHYLPROPANAMIDE]"
21,2.2,CC(C)C(=O)Nc1ccc(F)c(C2CCN(CCCNC(=O)C(c3ccc(Cl)cc3)c3ccc(Cl)cc3)CC2)c1 [Example 54]
22,2.1,CCCC(=O)Nc1ccc(F)c(C2CCN(CCCNC(=O)C(c3ccccc3)c3ccccc3)CC2)c1 [Example 25]
23,1.1,"CCCC(=O)Nc1cccc(C2CCN(CCCNC(=O)C(c3ccc(Cl)cc3)c3ccc(Cl)cc3)CC2)c1 [Example 53, N-{3-[1-(3-{[2,2-BIS(4-CHLOROPHENYL)ACETYL]AMINO}PROPYL)-4-PIPERIDINYL] PHENYL}BUTANAMIDE]"
24,0.7,"CCC(=O)Nc1cccc(C2CCN(CCCNC(=O)C(c3ccc(F)cc3)c3ccc(F)cc3)CC2)c1 [Example 21, N-{3-[1-(3-{[2,2-BIS(4-FLUOROPHENYL)ACETYL]AMINO}PROPYL)-4-PIPERIDINYL] PHENYL}PROPANAMIDE]"
25,0.5,"CCC(=O)Nc1cccc(C2CCN(CCCNC(=O)C(c3ccc(Cl)cc3)c3ccc(Cl)cc3)CC2)c1 [Example 57, N-{3-[1-(3-{[2,2-BIS(4-CHLOROPHENYL)ACETYL]AMINO}PROPYL)-4-PIPERIDINYL] PHENYL}PROPANAMIDE]"
26,0.4,"CC(=O)Nc1cccc(C2CCN(CCCNC(=O)C(c3ccc(F)cc3)c3ccc(F)cc3)CC2)c1 [Example 28, N-(3-{4-[3-(acetylamino)phenyl]-1-piperidinyl}propyl)-2,2-bis(4-fluorophenyl)acetamide]"
27,0.3,CC(=O)Nc1cccc(C2CCN(CCCNC(=O)C(c3ccc(Cl)cc3)c3ccc(Cl)cc3)CC2)c1 [Example 55]
